# Assay results from patent publication US20200270588A1, “GLUCOSYL TRANSFERASE POLYPEPTIDES AND METHODS OF USE” (Syngenta Participations AG, priority 2017, published 2020).
# Values joined by “and” are separate entries in the source; they are usually repeats but may differ in a detail not shown here. Equal entries are not always repeated.
# Legend:
# Format in all cases: biochemical
# [1] = biological target: T1, SEQ ID 32, mutant bx-type glucosyl transferase (Zea mays, UniProt Q8W2B7, M283F); assay: LC/MS glucosyl transferase assay (glucoside peak area), purified enzyme; conditions: about 60 min, ~15 pmol enzyme, relative quantification only
# T1 construct: 32; 9.98E+05; 1.75E+08; 8.33E+06; His tag; made in house
# Experimental: (§1) In an alternative method for assaying the various enzymes, the test glucosyl transferase enzyme is reacted with substrates exactly as above except that the assay is stopped by adding an equal volume of acetonitrile. Alternatively 50 or 100 μl samples from assay reactions are added to 500 μl ethyl acetate to stop the reaction. In this case samples are then vortexed and 400 μl of the ethyl acetate partition removed, dried down, and resuspended in 100 μl 80:20 acetonitrile/water. The formation of product gluco side and/or disappearance of substrate test herbicide is then monitored directly by LC/MS. Samples are analyzed by LC-MS using an Agilent 1290 liquid chromatography system and Thermo Q-Exactive mass spectrometer. The chromatography is achieved on a Waters Acquity C18 BEH (50×2.1 mm) 1.7 μm particle size column, using a 6 minute gradient run of Water (0.2% formic acid) and Acetonitrile. The Q-Exactive is operated in positive ionisation electrospray mode, using Full scan-AIF mode, at 35,000 resolution, between 100-800 m/z. All analytes are identified from the full scan data to within at least 5 ppm accuracy of their predicted pseudo-molecular ion [M+H]^+ m/z value. In order to obtain quantitative data standard curves are run using herbicides and herbicide glucosides synthesized as standards. Where these synthetic glucosides were not available the LC/MS assay could only be used to provide relative data.
# (§2) DNA sequences, optimized for E. coli codon usage, were cloned, expressed and the various proteins purified and assayed as described in the foregoing examples. Using the UDP assay (as described in examples 1, 3 and 6) the data obtained from the Zea mays bx8 w/t protein and its variants was noisy due to relatively high background rates in DMSO reagent blanks. The values reported in the table 15 were thus monitored by LC/MS as described in example 1.
# [2] = biological target: T2, SEQ ID 34, mutant bx-type glucosyl transferase (Zea mays, UniProt Q8W2B7, V367W); assay: as above; conditions: about 60 min, ~15 pmol enzyme, relative quantification only
# T2 construct: 34; 2.45E+05; 2.17E+07; 5.21E+06; His tag; made in house
# Experimental: as §1, §2
# [3] = biological target: T3, SEQ ID 36, mutant bx-type glucosyl transferase (Zea mays, UniProt Q8W2B7, M283F/S121V/S338K); assay: as above; conditions: about 60 min, ~15 pmol enzyme, relative quantification only
# T3 construct: 36; 6.03E+06; 6.40E+09; 1.75E+08; His tag; made in house
# Experimental: as §1, §2
# [4] = biological target: T4, SEQ ID NO 18, mutant of Zea mays bx9 glucosyl transferase (Zea mays, UniProt B4G072, A281K/A334K/F21Y/M279F/S117V); assay: UDP-Glo glucosyl transferase assay, purified enzyme; conditions: herbicide mM: V 0.300, VI 0.250, VII 0.210; IV, VIII, XI, XXI, XX, XVIII, XVI, XV, XIV 0.200; others 1.000
# T4 construct: His tag (C); made in house
# [5] = biological target: T5, SEQ ID NO 19, mutant of Zea mays bx9 glucosyl transferase (Zea mays, UniProt B4G072, A281K/A334K/L194V/M279F/S117V); assay: as above; conditions: herbicide mM: V 0.300, VI 0.250, VII 0.210; IV, VIII, XI, XXI, XX, XVIII, XVI, XV, XIV 0.200; others 1.000
# T5 construct: His tag (C); made in house
# [6] = biological target: T6, SEQ ID NO 23, mutant of Zea mays bx9 glucosyl transferase (Zea mays, UniProt B4G072, A334K/F21Y/L194C/M279F/S117V); assay: as above; conditions: lower block, concentration printed only in upper block: V 0.300, VII 0.210; IV, VIII, XI, XXI, XX, XVIII, XVI, XV, XIV 0.200; others 1.000 mM
# T6 construct: His tag (C); made in house
# T6 sequence (B4G072 whole entry F21Y/S117V/L194C/M279F/A334K): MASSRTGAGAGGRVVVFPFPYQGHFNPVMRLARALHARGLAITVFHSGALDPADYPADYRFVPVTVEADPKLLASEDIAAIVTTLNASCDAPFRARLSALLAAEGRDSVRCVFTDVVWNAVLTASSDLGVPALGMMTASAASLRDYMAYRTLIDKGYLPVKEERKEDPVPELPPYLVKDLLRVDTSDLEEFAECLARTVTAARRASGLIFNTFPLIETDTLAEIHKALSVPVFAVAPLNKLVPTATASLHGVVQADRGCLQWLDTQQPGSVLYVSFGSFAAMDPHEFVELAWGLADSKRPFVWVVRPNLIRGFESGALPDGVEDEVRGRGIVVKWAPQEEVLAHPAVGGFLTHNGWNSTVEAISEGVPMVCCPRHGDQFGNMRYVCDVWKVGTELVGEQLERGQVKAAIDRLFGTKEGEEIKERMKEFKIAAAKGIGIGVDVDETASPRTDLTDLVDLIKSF
# T2 sequence (Q8W2B7 whole entry V367W): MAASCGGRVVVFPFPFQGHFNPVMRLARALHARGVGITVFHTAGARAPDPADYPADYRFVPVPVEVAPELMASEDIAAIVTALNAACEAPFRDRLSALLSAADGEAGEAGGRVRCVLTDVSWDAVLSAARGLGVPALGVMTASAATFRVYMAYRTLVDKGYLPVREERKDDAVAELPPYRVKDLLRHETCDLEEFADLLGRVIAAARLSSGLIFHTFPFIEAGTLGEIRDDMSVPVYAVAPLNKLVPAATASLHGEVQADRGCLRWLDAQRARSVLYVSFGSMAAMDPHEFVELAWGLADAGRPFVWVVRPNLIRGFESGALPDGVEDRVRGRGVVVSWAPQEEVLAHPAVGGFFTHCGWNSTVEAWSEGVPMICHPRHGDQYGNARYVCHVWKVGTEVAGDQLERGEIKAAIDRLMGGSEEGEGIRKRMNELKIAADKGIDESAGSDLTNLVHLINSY
# T4 sequence (B4G072 whole entry F21Y/S117V/M279F/A281K/A334K): as the sequence (B4G072 whole entry F21Y/S117V/L194C/M279F/A334K) above, with C194L, A281K counted along it
# T1 sequence (Q8W2B7 whole entry M283F): as the sequence (Q8W2B7 whole entry V367W) above, with M283F, W367V counted along it
# T3 sequence (Q8W2B7 whole entry S121V/M283F/S338K): as the sequence (Q8W2B7 whole entry V367W) above, with S121V, M283F, S338K, W367V counted along it
# T5 sequence (B4G072 whole entry S117V/L194V/M279F/A281K/A334K): as the sequence (B4G072 whole entry F21Y/S117V/L194C/M279F/A334K) above, with Y21F, C194V, A281K counted along it
Compound,integrated peak area of beta-glucoside product [1],integrated peak area of beta-glucoside product [2],integrated peak area of beta-glucoside product [3],Activity [4] [pmol/sec/pmol enzyme],Activity [5] [pmol/sec/pmol enzyme],Activity [6] [pmol/sec/pmol enzyme]
CON1C(=O)N(c2cc(C(F)(F)F)ccn2)C(O)[C@@H]1C (stereo partly drawn) [Compound VI],1.75E+08 and 1.89E+08,2.17E+07 and 2.00E+07,6.40E+09 and 6.87E+09,–,–,–
Cc1cnc(N2C(=O)N(C)CC2O)cc1C(F)(F)F (stereo not drawn) [XVIII],–,–,–,0.898,0.964,0.253
CN1CC(O)N(c2cc(C(F)(F)F)c(Cl)cn2)C1=O (stereo not drawn) [XI],9.98E+05 and 1.08E+06,2.45E+05,6.03E+06 and 6.40E+06,0.710,0.898,0.227
CN1CC(O)N(c2cc(C(F)(F)F)ccn2)C1=O (stereo not drawn) [Compound V],8.33E+06 and 6.18E+06,5.21E+06 and 4.16E+06,1.75E+08 and 1.96E+08,1.582,1.651,1.246
